Results taken from patent US20200405697A1, “Antitumor Agent” (Taiho Pharmaceutical Co., Ltd, priority 2017, published 2020).

Experiments:
[1] = system: A549 (Human lung cancer cell line); assay: Effect of combination of sulfonamide compound and other antitumor agent (CellTiter-Glo, combination index): A549
[2] = system: MV-4-11 (Human blood cancer cell line); assay: Effect of combination of sulfonamide compound and other antitumor agent (CellTiter-Glo, combination index): MV-4-11
Experimental: Each cell line was seeded at 90 L/well to a 96-well culture plate (Thermo Fisher Scientific, Inc.) according to the above tables. The cell-seeded plate was cultured in an incubator set to 37° C. and 500 CO2. On the day following seeding, varying concentrations of the sulfonamide compound and the other antitumor agent were added in combination to the cells. […] The serial dilutions of each compound, or DW was added at 5μL/well to the plate such that each compound and DW, or the sulfonamide compound and the other antitumor agent were combined. […] The plate after the addition was cultured at 37° C. for 3 days under 5% CO2 conditions.
Three days later, CellTiter-Glo(R) 2.0 Reagent (Promega Corporation) was added at 100 μL/well, and the amount of luminescence was measured using a plate reader EnSpire(R) Multimode Plate Reader (PerkinElmer Co., Ltd.).
An average value from 3 wells was calculated as to each drug condition from the obtained data, and cell survival rate normalized against control wells supplemented with the vehicle (DW) was calculated. A Fa (fractional inhibition) value was calculated by subtracting the cell survival rate from 1.

[3] = Example Compound 14 1310 nM + Guadecitabine 326 nM
[4] = Example Compound 14 1970 nM + Guadecitabine 490 nM
[5] = Example Compound 14 2950 nM + Guadecitabine 734 nM
[6] = Example Compound 14 4420 nM + Guadecitabine 1100 nM
[7] = Example Compound 209A 635 nM + Guadecitabine 734 nM
[8] = Example Compound 235A 520 nM + Guadecitabine 469 nM
[9] = Example Compound 235A 780 nM + Guadecitabine 704 nM
[10] = Example Compound 235A 1170 nM + Guadecitabine 1060 nM
[11] = Example Compound 5 164 nM + Guadecitabine 11.8 nM
[12] = Example Compound 5 247 nM + Guadecitabine 17.8 nM
[13] = Example Compound 5 370 nM + Guadecitabine 26.7 nM
[14] = Example Compound 5 555 nM + Guadecitabine 40.1 nM
[15] = Example Compound 5 833 nM + Guadecitabine 60.2 nM
[16] = Example Compound 5 1250 nM + Guadecitabine 90.3 nM
[17] = Example Compound 14 519 nM + Guadecitabine 17.8 nM
[18] = Example Compound 14 778 nM + Guadecitabine 26.7 nM
[19] = Example Compound 14 1170 nM + Guadecitabine 40.2 nM
[20] = Example Compound 14 1750 nM + Guadecitabine 60.1 nM
[21] = Example Compound 14 2630 nM + Guadecitabine 90.3 nM
[22] = Example Compound 209A 96.6 nM + Guadecitabine 17.8 nM
[23] = Example Compound 209A 217 nM + Guadecitabine 40.0 nM
[24] = Example Compound 209A 326 nM + Guadecitabine 60.1 nM
[25] = Example Compound 235A 90.1 nM + Guadecitabine 11.9 nM
[26] = Example Compound 235A 135 nM + Guadecitabine 17.8 nM
[27] = Example Compound 235A 304 nM + Guadecitabine 40.1 nM
[28] = Example Compound 235A 456 nM + Guadecitabine 60.1 nM
[29] = Example Compound 235A 684 nM + Guadecitabine […]
[30] = Example Compound 14 874 nM + Fludarabine nucleoside 5930 nM
[31] = Example Compound 14 1310 nM + Fludarabine nucleoside 8890 nM
[32] = Example Compound 14 1970 nM + Fludarabine nucleoside 13400 nM
[33] = Example Compound 14 2950 nM + Fludarabine nucleoside 20000 nM
[34] = Example Compound 209A 188 nM + Fludarabine nucleoside 5930 nM
[35] = Example Compound 209A 282 nM + Fludarabine nucleoside 8890 nM
[36] = Example Compound 209A 635 nM + Fludarabine nucleoside 20000 nM
[37] = Example Compound 235A 520 nM + Fludarabine nucleoside 8870 nM
[38] = Example Compound 235A 780 nM + Fludarabine nucleoside 13300 nM
[39] = Example Compound 235A 1170 nM + Fludarabine nucleoside 20000 nM
[40] = Example Compound 235A 1750 nM + Fludarabine nucleoside 29900 nM
[41] = Example Compound 5 370 nM + Fludarabine nucleoside 6150 nM
[42] = Example Compound 5 555 nM + Fludarabine nucleoside 9220 nM
[43] = Example Compound 14 778 nM + Fludarabine nucleoside 6150 nM
[44] = Example Compound 14 1170 nM + Fludarabine nucleoside 9250 nM
[45] = Example Compound 235A 304 nM + Fludarabine nucleoside 9220 nM
[46] = Example Compound 14 1970 nM + Decitabine 1340 nM
[47] = Example Compound 14 2950 nM + Decitabine 2000 nM
[48] = Example Compound 14 4420 nM + Decitabine 3000 nM
[49] = Example Compound 209A 635 nM + Decitabine 2000 nM
[50] = Example Compound 235A 520 nM + Decitabine 1340 nM
[51] = Example Compound 235A 780 nM + Decitabine 2020 nM
[52] = Example Compound 235A 1170 nM + Decitabine 3020 nM
[53] = Example Compound 5 247 nM + Decitabine 50.2 nM
[54] = Example Compound 5 370 nM + Decitabine 75.2 nM
[55] = Example Compound 5 555 nM + Decitabine 113 nM
[56] = Example Compound 5 833 nM + Decitabine 169 nM
[57] = Example Compound 5 1250 nM + Decitabine 254 nM
[58] = Example Compound 14 519 nM + Decitabine 50.1 nM
[59] = Example Compound 14 778 nM + Decitabine 75.2 nM
[60] = Example Compound 14 1170 nM + Decitabine 113 nM
[61] = Example Compound 14 1750 nM + Decitabine 169 nM
[62] = Example Compound 14 2630 nM + Decitabine 254 nM
[63] = Example Compound 209A 64.4 nM + Decitabine 33.4 nM
[64] = Example Compound 209A 96.6 nM + Decitabine 50.1 nM
[65] = Example Compound 209A 217 nM + Decitabine 113 nM
[66] = Example Compound 209A 326 nM + Decitabine 169 nM
[67] = Example Compound 235A 90.1 nM + Decitabine 33.4 nM
[68] = Example Compound 235A 135 nM + Decitabine 50.1 nM
[69] = Example Compound 235A 304 nM + Decitabine 113 nM
[70] = Example Compound 235A 456 nM + Decitabine 169 nM
[71] = Example Compound 235A 684 nM + Decitabine 254 nM

## Nc1ncn([C@H]2C[C@H](OP(=O)(O)OC[C@H]3O[C@@H](n4cnc5c(=O)[nH]c(N)nc54)C[C@@H]3O)[C@@H](CO)O2)c(=O)n1 [Guadecitabine, guadecitabine]
[1]; [3]
  CI value: 0.561
  Fa value: 0.2913
[1]; [4]
  CI value: 0.503
  Fa value: 0.4560
[1]; [5]
  CI value: 0.582
  Fa value: 0.5553
[1]; [6]
  CI value: 0.620
  Fa value: 0.6875
[1]; [7]
  CI value: 0.522
  Fa value: 0.6179
[1]; [8]
  CI value: 0.568
  Fa value: 0.2878
[1]; [9]
  CI value: 0.583
  Fa value: 0.4237
[1]; [10]
  CI value: 0.670
  Fa value: 0.5377
[2]; [11]
  CI value: 0.640
  Fa value: 0.2498
[2]; [12]
  CI value: 0.683
  Fa value: 0.3527
[2]; [13]
  CI value: 0.727
  Fa value: 0.4905
[2]; [14]
  CI value: 0.690
  Fa value: 0.7205
[2]; [15]
  CI value: 0.673
  Fa value: 0.9023
[2]; [16]
  CI value: 0.557
  Fa value: 0.9892
[2]; [17]
  CI value: 0.767
  Fa value: 0.3318
[2]; [18]
  CI value: 0.844
  Fa value: 0.4449
[2]; [19]
  CI value: 0.797
  Fa value: 0.6448
[2]; [20]
  CI value: 0.668
  Fa value: 0.8620
[2]; [21]
  CI value: 0.545
  Fa value: 0.9686
[2]; [22]
  CI value: 0.766
  Fa value: 0.4376
[2]; [23]
  CI value: 0.753
  Fa value: 0.8301
[2]; [24]
  CI value: 0.631
  Fa value: 0.9675
[2]; [25]
  CI value: 0.633
  Fa value: 0.2567
[2]; [26]
  CI value: 0.638
  Fa value: 0.4131
[2]; [27]
  CI value: 0.689
  Fa value: 0.7974
[2]; [28]
  CI value: 0.617
  Fa value: 0.9524
[2]; [29]
  CI value: 0.544
  Fa value: 0.9930

## Nc1nc(F)nc2c1ncn2[C@@H]1O[C@H](CO)[C@@H](O)[C@@H]1O [Fludarabine nucleoside, fludarabine nucleoside]
[1]; [30]
  CI value: 0.549
  Fa value: 0.3063
[1]; [31]
  CI value: 0.387
  Fa value: 0.7007
[1]; [32]
  CI value: 0.377
  Fa value: 0.8610
[1]; [33]
  CI value: 0.537
  Fa value: 0.8736
[1]; [34]
  CI value: 0.558
  Fa value: 0.3666
[1]; [35]
  CI value: 0.386
  Fa value: 0.7059
[1]; [36]
  CI value: 0.515
  Fa value: 0.8634
[1]; [37]
  CI value: 0.568
  Fa value: 0.4460
[1]; [38]
  CI value: 0.423
  Fa value: 0.7798
[1]; [39]
  CI value: 0.504
  Fa value: 0.8525
[1]; [40]
  CI value: 0.734
  Fa value: 0.8595
[2]; [41]
  CI value: 0.739
  Fa value: 0.6600
[2]; [42]
  CI value: 0.293
  Fa value: 0.9981
[2]; [43]
  CI value: 0.786
  Fa value: 0.5954
[2]; [44]
  CI value: 0.296
  Fa value: 0.9984
[2]; [45]
  CI value: 0.320
  Fa value: 0.9988

## Nc1ncn([C@H]2C[C@H](O)[C@@H](CO)O2)c(=O)n1 [Decitabine, decitabine]
[1]; [46]
  CI value: 0.542
  Fa value: 0.3867
[1]; [47]
  CI value: 0.577
  Fa value: 0.5183
[1]; [48]
  CI value: 0.602
  Fa value: 0.6737
[1]; [49]
  CI value: 0.569
  Fa value: 0.5615
[1]; [50]
  CI value: 0.570
  Fa value: 0.2897
[1]; [51]
  CI value: 0.567
  Fa value: 0.4383
[1]; [52]
  CI value: 0.650
  Fa value: 0.5537
[2]; [53]
  CI value: 0.685
  Fa value: 0.3382
[2]; [54]
  CI value: 0.725
  Fa value: 0.4753
[2]; [55]
  CI value: 0.709
  Fa value: 0.6924
[2]; [56]
  CI value: 0.693
  Fa value: 0.8888
[2]; [57]
  CI value: 0.608
  Fa value: 0.9844
[2]; [58]
  CI value: 0.707
  Fa value: 0.3361
[2]; [59]
  CI value: 0.872
  Fa value: 0.4089
[2]; [60]
  CI value: 0.849
  Fa value: 0.5994
[2]; [61]
  CI value: 0.717
  Fa value: 0.8350
[2]; [62]
  CI value: 0.599
  Fa value: 0.9588
[2]; [63]
  CI value: 0.793
  Fa value: 0.2551
[2]; [64]
  CI value: 0.839
  Fa value: 0.3812
[2]; [65]
  CI value: 0.715
  Fa value: 0.8536
[2]; [66]
  CI value: 0.627
  Fa value: 0.9689
[2]; [67]
  CI value: 0.725
  Fa value: 0.2126
[2]; [68]
  CI value: 0.757
  Fa value: 0.3356
[2]; [69]
  CI value: 0.760
  Fa value: 0.7532
[2]; [70]
  CI value: 0.687
  Fa value: 0.9339
[2]; [71]
  CI value: 0.535
  Fa value: 0.9935
